Where two headings read alike, the source gives them in different places.
What was measured:
[1] = Tolerability of s.c. administration in rats (behavior, palpation, dissection, histology scores); type: in vivo; design: key to Behavior of the animals (score): 0: normal; slight scratching in 1st hour; 2: scratching and signs of pain; 3: still marked impairment after 2 h; key to Palpation consecutive (score): 0: unremarkable; 1: slight, isolated thickenings/indurations; 2: persistent thickenings/indurations, coalescing; 3: additional lesions, inflammations; conditions: rat
Experimental: (§1) Female wistar rats, 240-300 g body weight (Charles River-Wiga, Sulzfeld), were treated with the active ingredient WX-UK1 in the form of an aqueous solution or with the liposomal formulations 1-4 described in Example 1. The animals each received 1 dose/day over a period of 10 days. The administrations took place in the region of the flank (between shoulder and rear limbs) so that the animals were unable to reach the injection site with their paws. The injection sites were approx. 1 cm apart, no site being injected more than once. The first five injections took place on the left side, and the second five injections on the right side. The dose was usually 3 mg of active ingredient/kg of body weight, i.e. 0.9 mg of active ingredient was administered for an average body weight of 300 g. Radiolabeled active ingredient (3H-WX-UK1) was administered in some cases.
The animals were weighed before each injection and observed for 2 h after each injection, and before each further injection the previous injection sites were palpated. The behavior of the animals and the palpation findings were recorded.
The following score was used to evaluate the observed impairments:
Behavior of the animals after the injection (2 h)
Consecutive Palpation Findings
(§2) 24 h after the last injection, the animals were anaesthetized (ethylurethane, 1.4 g/kg i.p.), and citrated blood was obtained from the retroorbital venous plexus; citrated plasma was obtained by centrifugation at 1200×g for 10 min. The bile duct was then dissected, and bile was obtained for 15 min. Subsequently, the areas of skin at the injection sites were examined and the growth findings on dissection were recorded.
The following score was used to evaluate the growth changes observed:
Final Observations, Growth Findings during Dissection
Skin samples were dissected from the regions of the injections, fixed in formalin and examined histologically (hematoxylin/eosin stain). The following score was used to evaluate the histologically visible changes: […]

[2] = Concentration in plasma, bile and organs after s.c. administration in rats; type: in vivo; conditions: rat; for concentration at 24 h: female, Wistar, sc
Experimental: as §1, §2
The animals were then sacrificed, and various organs (heart, kidney, liver, spleen) were dissected. The active ingredient content in the plasma, bile and organs was determined by HPLC [standard method using Nucleosil 7 C18 columns (Macherey-Nagel, Düren), acetonitrile/water/perchloric acid 30/70/0.04, 1 ml/min] after prepurification using Chromabond C18 solid-phase extraction columns (Macherey-Nagel, Duren). When ^3H-WX-UK1 was used, the active ingredient concentration was determined immediately after lyophilization of the samples by measuring the radioactivity in a liquid scintillation counter.

[3] = s.c. 3 mg/kg 1 dose/day 10 days, 24 h after last injection, single experiment, listed as Control, 3 mg/kg

- concentration at 24 h ([2]; bile, 3 mg/kg, s.c. 3 mg/kg 1 dose/day 10 days, 24 h after last injection, single experiment, read-out: Concentration Bile): 3100 ng/mL
- concentration at 24 h ([2]; heart, 3 mg/kg, s.c. 3 mg/kg 1 dose/day 10 days, 24 h after last injection, single experiment, read-out: Organ content Heart): 840 ng/g
- concentration at 24 h ([2]; kidney, 3 mg/kg, s.c. 3 mg/kg 1 dose/day 10 days, 24 h after last injection, single experiment, read-out: Organ content Kidney): 2300 ng/g
- concentration at 24 h ([2]; liver, 3 mg/kg, s.c. 3 mg/kg 1 dose/day 10 days, 24 h after last injection, single experiment, read-out: Organ content Liver): 180 ng/g
- concentration at 24 h ([2]; plasma, 3 mg/kg, s.c. 3 mg/kg 1 dose/day 10 days, 24 h after last injection, single experiment, read-out: Concentration Plasma): < 50 ng/mL
- concentration at 24 h ([2]; spleen, 3 mg/kg, s.c. 3 mg/kg 1 dose/day 10 days, 24 h after last injection, single experiment, read-out: Organ content Spleen): 690 ng/g
- Organ content Heart [2, 3]: 1.0 µg/g
- Organ content Kidney [2, 3]: 2.5 µg/g
- Organ content Liver [2, 3]: 0.36 µg/g
- Organ content Spleen [2, 3]: 0.65 µg/g
- Concentration in the plasma ([2]; s.c., determined only by using 3H-WX-UK1): < 100 ng/mL
Compound: CCOC(=O)N1CCN(C(=O)[C@H](Cc2cccc(C(=N)N)c2)NS(=O)(=O)c2c(C(C)C)cc(C(C)C)cc2C(C)C)CC1 [WX-UK1, Nα-(2,4,6-triisopropylphenylsulfonyl)-3-amidino-(L)-phenylalanine 4-ethoxycarbonylpiperazide]
- Behavior of the animals (score) ([1]; 2 h after s.c. injection): 1
- Impression final (score, findings during dissection) ([1]; 24 h after last injection): 2.5
- Skin histology (FIG. 1, FIG. 3, magnification 25x) ([1]; after s.c. administration): strong inflammatory reaction
- Palpation consecutive (score) ([1]; previous s.c. injection sites): 1
- Score (total impairment), Mean ([1]; s.c., mean of the two experiments): Mean = 7.5
- Score (total impairment of the animals) ([1]; s.c., sum of the part scores): 7.5

From patent publication US20050181034A1, “Formulation of liposomal derivatives of phenylalanine” (WILEX AG, priority 2002, published 2005)
